Laboratory results from US20040086500A1, “Rh116 polypeptides and its fragments and polynucleotides encoding said polypeptides and therapeutic uses” (priority 2000, published 2004).
Entries after “also recorded” stand apart in the source; their conditions may differ.

Key:
[1] = test system: PBMCs of CD8 lymphocyte-depleted patients; format: cell-based, human
Description: Specifically, MB inhibits by 70 to 100% the level of HIV viral protein p24 in the culture supernatants. This effect correlates with the level of expression of viral messenger RNAs (nonspliced and single-spliced).

RH116 messenger RNA = assay: Semiquantitative RT-PCR of RH116 mRNA in CD8-depleted PBMCs of HIV-1 infected patients; format: cell-based, human; details: for maximum mean inhibition of expression of the RH116 messenger RNA: murabutide 10 μg/ml
Description: Venous blood is collected from patients sero-positive for HIV-1 and peripheral blood mononuclear cells (PBMCs) are isolated by centrifugation on Ficoll-Hypaque (AMERSHAM PHARMACIA BIOTECH, Uppsala, Sweden). The cells are washed carefully in order to remove the platelets and are depleted of CD8+ cells using electro-magnetic beads covered with an anti-CD8 antibody (DYNAL, Oslo, Norway). The depleted PBMCs obtained using the manufacturer's protocol contain less than 3% of CD8+ cells after analysis by flow cytometry. […]. Next, the PBMCs are cultured and then recovered in the presence or absence of murabutide (N-acetylmuramyl-L-alanyl-D-glutamine-n-butyl ester) (provided by ISTAC SA, Lille, France) (10 μg/ml) and interleukin 2 (IL-2) (10 μg/ml) for 6 or 24 hours.
(§1) The total cellular RNA extracted using the RNA plus kit (Q-BIOgene, Illkirch, France) is pretreated with DNAse I. Synthesis of the first strand on the polyA+ RNA was primed with a p(dT)15 primer (BOERHINGER MANNHEIM, ROCHE DIAGNOSTICS, France) and carried out with the reverse transcriptase derived from the Moloney murine leukemia virus (M-MLV) (PROMEGA, Madison, Calif., USA) (1 hour at 37° C., 3 min at 92° C.). The resulting cDNA is then subjected to 25 to 35 repeat amplification cycles with the AmpliTaq Gold polymerase (APPLIED BIOSYSTEMS). PCR amplification of the GAPDH sequences is carried out in order to obtain an internal control. […]
PBMCs of patients (P) infected with HIV or of control healthy donors (C) are isolated, depleted of CD8+ lymphocytes (Dynabeads, Dynal) and stimulated with phytohemagglutinin, PHA (5 μg/ml), for 3 days. […] The number of amplification cycles was determined beforehand (35 cycles). The amplified fragments are visualized on an agarose gel (1%) in the presence of ethidium bromide, and then quantified using the Imager master program (Pharmacia). […]

RH116 gene = assay: Semiquantitative RT-PCR of RH116 gene expression in PBMCs of healthy donors; format: cell-based, human; details: 10 healthy controls, in particular after 6 hours, 10 μg/ml
Procedure: as §1
PBMCs of patients (P) infected with HIV or of control healthy donors (C) are isolated, depleted of CD8+ lymphocytes (Dynabeads, Dynal) and stimulated with phytohemagglutinin, PHA (5 μg/ml), for 3 days. […] The number of amplification cycles was determined beforehand (35 cycles). The amplified fragments are visualized on an agarose gel (1%) in the presence of ethidium bromide, and then quantified using the Imager master program (Pharmacia). […] The results are then expressed as % increase or % inhibition of expression of the gene compared with the untreated cells. […]

[2] = test system: human immunodeficiency virus (HIV); details: macrophages, dendritic cells, PBMCs of infected patients; cited from earlier work
[3] = in vivo; cited from earlier work

Q: With “N-acetylmuramyl-L-alanyl-D-glutamine-n-butyl ester [murabutide]” as the substance, how does the “number of live cells (lack of toxicity)” value [1] read?
A: The value was “remain unchanged”.

Q: And the “expression of the RH116 gene compared with untreated cells” value (RH116 messenger RNA; 12 patients, 6 or 24 h, 10 μg/ml)?
A: Its value is “significant inhibition”.

Q: What about the “maximum mean inhibition of expression of the RH116 messenger RNA” value (RH116 messenger RNA; 6 hours, patient No. 5) of the same substance?
A: The value was 90%.

Q: And the “maximum mean inhibition of expression of the RH116 messenger RNA” value (RH116 messenger RNA; 24 hours, patient No. 3)?
A: The value was 57%.

Q: And the “expression of the RH116 gene compared with untreated cells” value (RH116 gene)?
A: The value was “increases the level of expression; also recorded: very significant increase”.

Q: What about the HIV replication [2] of the same substance?
A: The HIV replication was “inhibits”.

Q: And the clinical tolerance [3]?
A: The clinical tolerance was “good clinical tolerance”.

Q: What about the inflammatory reactions [3] of the same substance?
A: The inflammatory reactions was “does not induce inflammatory reactions”.

Q: And the pyrogenicity [3]?
A: Its pyrogenicity is “not pyrogenic”.

Q: What about the “toxicity in clinical studies” value [3] of the same substance?
A: The value was “has not shown severe toxicity”.
